# Reference: US20230082430A1 (C4 Therapeutics, Inc., priority 2019, published 2023)
# Tested on: NCIH929.1 cells
# Experiment: Cell viability assay for Table 2 (CellTiter-Glo 2.0, ATP quantification, 96 hr)
# Format: cell-based
# Details: 96 h, NCIH929.1 cell viability, 96 hr, top concentration 1 μM, 14 points half log titration; read-out: IC50
# Excerpt: Cell Viability Assay for Table 2
# CellTiter-Glo® 2.0 Assay was purchased from Promega (Madison, Wis., USA). NCIH929.1 cell line was purchased from ATCC (Manassas, Va., USA). Cell culture flasks and 384-well microplates were acquired from VWR (Radnor, Pa., USA).
row,SMILES,IC50 [nM]
1,"O=C1CCC(N2C(=O)c3cccc4c(Cc5ccc(CN6CCN(c7ccc(Cl)cc7F)CC6)cc5)ccc2c34)C(=O)N1 (single isomer, unassigned) [Compound 254, 3-[6-[[4-[[4-(4-chloro-2-fluoro-phenyl)piperazin-1-yl]methyl]phenyl]methyl]-2-oxo-benzo[cd]indol-1-yl]-piperidine-2,6-dione]",< 1
2,"COC(c1cnn(C2CCN(C(=O)C3(C)CCC3)CC2)c1)c1ccc2c3c(cccc13)C(=O)N2C1CCC(=O)NC1=O (stereo not drawn) [Compound 247, 3-[6-[methoxy-[1-[1-(1-methylcyclobutanecarbonyl)-4-piperidyl]pyrazol-4-yl]methyl]-2-oxo-benzo[cd]indol-1-yl]piperidine-2,6-dione]",< 1
3,"O=C1CCC(N2C(=O)c3cccc4c(Cc5ccc(CN6CCN(c7ccccc7)CC6)cc5)ccc2c34)C(=O)N1 (stereo not drawn) [Compound 210, 3-(2-oxo-6-(4-((4-phenylpiperazin-1-yl)methyl)benzyl)benzo[cd]indol-1(2H)-yl)piperidine-2,6-dione]",< 1
4,"CC(C)(C)OC(=O)N1CCC(n2cc(Nc3ccc4c5c(cccc35)C(=O)N4C3CCC(=O)NC3=O)c(Cl)n2)CC1 (stereo not drawn) [Compound 250, tert-butyl 4-[3-chloro-4-[[1-(2,6-dioxo-3-piperidyl)-2-oxo-benzo[cd]indol-6-yl]amino]pyrazol-1-yl]piperidine-1-carboxylate]",< 100
5,"N#Cc1ccc(N2CCN(Cc3ccc(Cc4ccc5c6c(cccc46)C(=O)N5C4CCC(=O)NC4=O)cc3)C(=O)C2)c(F)c1 (stereo not drawn) [Compound 172, 4-[4-[[4-[[1-(2,6-dioxo-3-piperidyl)-2-oxo-benzo[cd]indol-6-yl]methyl]phenyl]methyl]-3-oxo-piperazin-1-yl]-3-fluoro-benzonitrile]",< 1
6,"CN(C)C1(C(=O)N2CCC(n3cc(Cc4ccc5c6c(cccc46)C(=O)N5C4CCC(=O)NC4=O)cn3)CC2)CCC1 (stereo not drawn) [Compound 287, 3-[6-[[1-[1-[1-(dimethylamino)cyclobutanecarbonyl]-4-piperidyl]pyrazol-4-yl]methyl]-2-oxo-benzo[cd]indol-1-yl]piperidine-2,6-dione]",< 1
7,"CN(Cc1ccc(Cc2ccc3c4c(cccc24)C(=O)N3C2CCC(=O)NC2=O)cc1)c1ccccc1 (stereo not drawn) [Compound 229, 3-(6-(4-((methyl(phenyl)amino)methyl)benzyl)-2-oxobenzo[cd]indol-1(2H)-yl)piperidine-2,6-dione]",< 1
8,"O=C1CCC(N2C(=O)c3cccc4c(Cc5ccc(CN6CCN(CC(F)(F)F)CC6)cc5)ccc2c34)C(=O)N1 (stereo not drawn) [Compound 161, 3-(2-Oxo-6-{4-[4-(2,2,2-trifluoro-ethyl)-piperazin-1-ylmethyl]-benzyl}-2H-benzo[cd]indol-1-yl)-piperidine-2,6-dione]",< 1
9,"CC1(n2cc(Cc3ccc4c5c(cccc35)C(=O)N4C3CCC(=O)NC3=O)cn2)CCN(C(=O)C2(C(F)(F)F)CC2)CC1 (stereo not drawn) [Compound 77, 3-(6-((1-(4-methyl-1-(1-(trifluoromethyl)cyclopropane-1-carbonyl)piperidin-4-yl)-1H-pyrazol-4-yl)methyl)-2-oxobenzo[cd]indol-1(2H)-yl)piperidine-2,6-dione]",< 1
10,"O=C1CCC(N2C(=O)c3cccc4c(Cc5cnn(C6(CO)CCN(C(=O)C7(C(F)(F)F)CC7)CC6)c5)ccc2c34)C(=O)N1 (stereo not drawn) [Compound 195, 3-[6-[[1-[4-(hydroxymethyl)-1-[1-(trifluoromethyl)cyclopropanecarbonyl]-4-piperidyl]pyrazol-4-yl]methyl]-2-oxo-benzo[cd]indol-1-yl]piperidine-2,6-dione]",< 1
11,"O=C1CCC(N2C(=O)c3cccc4c(Cc5cnn(C6CCN(C(=O)C78CCCC(C7)C8)CC6)c5)ccc2c34)C(=O)N1 (stereo not drawn) [Compound 50, 3-(6-((1-(1-(bicyclo[3.1.1]heptane-1-carbonyl)piperidin-4-yl)-1H-pyrazol-4-yl)methyl)-2-oxobenzo[cd]indol-1(2H)-yl)piperidine-2,6-dione]",< 1
12,"O=C1CCC(N2C(=O)c3cccc4c(Cc5ccc(CN6CCOc7ccccc7C6)cc5)ccc2c34)C(=O)N1 (stereo not drawn) [Compound 118, 3-(6-(4-((2,3-dihydrobenzo[f][1,4]oxazepin-4(5H)-yl)methyl)benzyl)-2-oxobenzo[cd]indol-1(2H)-yl)piperidine-2,6-dione]",< 1
13,"N#Cc1ccc(N2CCN(C3(c4ccc(Cc5ccc6c7c(cccc57)C(=O)N6C5CCC(=O)NC5=O)cc4)CC3)CC2)c(F)c1 (stereo not drawn) [Compound 262, 4-[4-(1-{4-[1-(2,6-Dioxo-piperidin-3-yl)-2-oxo-1,2-dihydro-benzo[cd]indol-6-ylmethyl]-phenyl}-cyclopropyl)-piperazin-1-yl]-3-fluoro-benzonitrile]",< 1
14,"O=C1CCC(N2C(=O)c3cccc4c(Cc5cnn(C6CCN(C7CCCC78CCC8)CC6)c5)ccc2c34)C(=O)N1 (single isomer, unassigned) [Compound 178, 3-[2-oxo-6-[[1-[1-[spiro[3.4]octan-8-yl]-4-piperidyl]pyrazol-4-yl]methyl]benzo[cd]indol-1-yl]piperidine-2,6-dione]",< 1
15,"CC1(C(=O)N2CCC(n3cc(C4(c5ccc6c7c(cccc57)C(=O)N6C5CCC(=O)NC5=O)CC4)cn3)CC2)CCC1 (stereo not drawn) [Compound 163, 3-[6-[1-[1-[1-(1-methylcyclobutanecarbonyl)-4-piperidyl]pyrazol-4-yl]cyclopropyl]-2-oxo-benzo[cd]indol-1-yl]piperidine-2,6-dione]",< 1
16,"O=C1CCC(N2C(=O)c3cccc4c(Cc5ccc(CN6CCN(c7ccc(F)cc7F)CC6)cc5)ccc2c34)C(=O)N1 (single isomer, unassigned) [Compound 256, 3-(6-(4-((4-(2,4-difluorophenyl)piperazin-1-yl)methyl)benzyl)-2-oxobenzo[cd]indol-1(2H)-yl)piperidine-2,6-dione]",< 1
17,"Cc1cccc(C)c1C(=O)N1CCC(n2cc(Cc3ccc4c5c(cccc35)C(=O)N4C3CCC(=O)NC3=O)cn2)CC1 (stereo not drawn) [Compound 45, 3-(6-((1-(1-(2,6-dimethylbenzoyl)piperidin-4-yl)-1H-pyrazol-4-yl)methyl)-2-oxobenzo[cd]indol-1(2H)-yl)piperidine-2,6-dione]",< 1
18,"CC(C)(C)OC(=O)N1CCC(C)(n2cc(C(=O)c3ccc4c5c(cccc35)C(=O)N4C3CCC(=O)NC3=O)cn2)CC1 (stereo not drawn) [Compound 241, 4-{4-[1-(2,6-Dioxo-piperidin-3-yl)-2-oxo-1,2-dihydro-benzo[cd]indole-6-carbonyl]-pyrazol-1-yl}-4-methyl-piperidine-1-carboxylic acid tert-butyl ester]",< 100
19,"COC1(CN2CCC(n3cc(Cc4ccc5c6c(cccc46)C(=O)N5C4CCC(=O)NC4=O)cn3)CC2)CC1 (stereo not drawn) [Compound 66, 3-(6-((1-(1-((1-methoxycyclopropyl)methyl)piperidin-4-yl)-1H-pyrazol-4-yl)methyl)-2-oxobenzo[cd]indol-1(2H)-yl)piperidine-2,6-dione]",< 1
20,"O=C1CCC(N2C(=O)c3cccc4c(Cc5ccc(CN6CCC7(CCCO7)CC6)cc5)cnc2c34)C(=O)N1 (stereo not drawn) [Compound 222, 3-[23-[[4-(1-oxa-8-azaspiro[4.5]decan-8-ylmethyl)phenyl]methyl]-28-oxo-31,34-diazatricyclododeca-(2),1(21),7(23),22(24),25(31)-pentaen-34-yl]piperidine-2,6-dione]",< 1
21,"COC(C)(C)CN1CCC(n2cc(Cc3ccc4c5c(cccc35)C(=O)N4C3CCC(=O)NC3=O)cn2)CC1 (stereo not drawn) [Compound 58, 3-(6-((1-(1-(2-methoxy-2-methylpropyl)piperidin-4-yl)-1H-pyrazol-4-yl)methyl)-2-oxobenzo[cd]indol-1(2H)-yl)piperidine-2,6-dione]",< 1
22,"O=C1CCC(N2C(=O)c3cccc4c(Cc5ccc(CN6CCC7(CCCCO7)CC6)cc5)ccc2c34)C(=O)N1 (stereo not drawn) [Compound 228, 3-(6-(4-((1-oxa-9-azaspiro[5.5]undecan-9-yl)methyl)benzyl)-2-oxobenzo[cd]indol-1(2H)-yl)piperidine-2,6-dione]",< 1
23,"CC1(C(=O)N2CCC(n3cc(S(=O)(=O)c4ccc5c6c(cccc46)C(=O)N5C4CCC(=O)NC4=O)cn3)CC2)CCC1 (stereo not drawn) [Compound 175, 3-[6-[1-[1-(1-methylcyclobutanecarbonyl)-4-piperidyl]pyrazol-4-yl]sulfonyl-2-oxo-benzo[cd]indol-1-yl]piperidine-2,6-dione]",< 100
24,"CC1(C(=O)N2CCN(c3cnn(Cc4ccc5c6c(cccc46)C(=O)N5C4CCC(=O)NC4=O)c3)CC2)CCC1 (stereo not drawn) [Compound 246, 3-(6-((4-(4-(1-methylcyclobutane-1-carbonyl)piperazin-1-yl)-1H-pyrazol-1-yl)methyl)-2-oxobenzo[cd]indol-1(2H)-yl)piperidine-2,6-dione]",< 1
25,"O=C1CCC(N2C(=O)c3cccc4c(Cc5ccc(CC6CCN(c7ccc(F)cc7)CC6)cc5)ccc2c34)C(=O)N1 (stereo not drawn) [Compound 203, 3-[6-[[4-[[1-(4-fluorophenyl)-4-piperidyl]methyl]phenyl]methyl]-2-oxo-benzo[cd]indol-1-yl]piperidine-2,6-dione]",< 1

# Same assay, conditions: NCIH929.1 cell viability, 96 hr, top concentration 1 μM, 14 points half log titration; read-out: IC50
row,SMILES,IC50 [nM]
1,"CC(c1cnn(C2CCN(C(=O)C3(C)CCC3)CC2)c1)c1ccc2c3c(cccc13)C(=O)N2C1CCC(=O)NC1=O (single isomer, unassigned) [Compound 149, 3-(6-(1-(1-(1-(1-methylcyclobutane-1-carbonyl)piperidin-4-yl)-1H-pyrazol-4-yl)ethyl)-2-oxobenzo[cd]indol-1(2H)-yl)piperidine-2,6-dione]",< 1
2,"O=C1CCC(N2C(=O)c3cccc4c(Cc5ccc(CN6CCN(c7ccccc7F)CC6)cc5)ccc2c34)C(=O)N1 (single isomer, unassigned) [Compound 189, 3-[6-[[4-[[4-(2-fluorophenyl)piperazin-1-yl]methyl]phenyl]methyl]-2-oxo-benzo[cd]indol-1-yl]piperidine-2,6-dione]",< 1
